Measured values reported in patent US11369565B2, “Amino-pyrimidine skeletal muscle modulators” (Cytokinetics, Inc., priority 2010, dated 2022).

Tested on: rabbit skeletal myofibrils (approximately 90% fast fibers)
Test: Activation of fast skeletal myofibrils (PUMA coupled-enzyme ATPase assay at pCa25)
Type: biochemical
Conditions: concentration at which the compound increased the enzymatic activity by 40%; calcium at pCa25; PM12 buffer pH 6.8
Method in brief: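 Detergent-washed rabbit psoas myofibrils tested at calcium giving 25% of maximal rate (pCa25). ATPase activity tracked by pyruvate kinase/lactate dehydrogenase coupling, NADH oxidation read as absorbance at 340 nm, in PM12 buffer (12 mM Pipes, 2 mM MgCl2, 1 mM DTT, pH 6.8).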

Mean AC1.4 | Compound
C (C=10-20 uM) | Cc1nc(N)ncc1-c1cnc(NC[C@]2(c3ncccc3F)C[C@H](F)C2)nc1 [[5-(2-amino-4-methylpyrimidin-5-yl)pyrimidin-2-yl]{[3-fluoro-1-(3-fluoro(2-pyridyl))cyclobutyl]methyl}amine]
C (C=10-20 uM) | NC(=O)c1ccnc(NC2(c3ccc(F)cc3)CCC2)n1 [2-{[(4-fluorophenyl)cyclobutyl]amino} pyrimidine-4-carboxamide]
D (D=>20 uM) | O=C(O)c1ccc(=O)n(-c2cnc(NC[C@]3(c4ncccc4F)C[C@H](F)C3)nc2)c1 [1-[2-({[3-fluoro-1-(3-fluoro(2-pyridyl))cyclobutyl]methyl}amino)pyrimidin-5-yl]-6-oxohydropyridine-3-carboxylic acid]
D (D=>20 uM) | CC(C)(Nc1ncc(Br)cn1)c1ncccc1F [(5-bromopyrimidin-2-yl)[1-(3-fluoro(2-pyridyl))-isopropyl]amine]
D (D=>20 uM) | CC(C)(Nc1ncc(-c2ccc(C(=O)O)s2)cn1)c1ncccc1Cl [5-(2-{[1-(3-chloro(2-pyridyl))-isopropyl]amino}pyrimidin-5-yl)thiophene-2-carboxylic acid]
D (D=>20 uM) | 2-{[2-(4-f1uorophenyl)-2- methylpropyl]amino}-5,6,7,8- tetrahydropyridino[4,3- d]pyrimidine-6-carboxamide
A (A=<1 uM) | CC(C)(Nc1ncc(-c2cc(C(N)=O)ccc2F)cn1)c1ncccc1Cl [3-(2-{[1-(3-chloro(2-pyridyl))-isopropyl]amino}pyrimidin-5-yl)-4-fluorobenzamide]
D (D=>20 uM) | Fc1cccnc1C1(Nc2nccc(C(F)(F)F)n2)CCC1 [[(3-fluoro(2-pyridyl))cyclobutyl][4-(trifluoromethyl)pyrimidin-2-yl]amine]
D (D=>20 uM) | CC(C)(C)Nc1ncc(-c2cccc(C(N)=O)c2)cn1 [3-{2-[(tert-butyl)amino]pyrimidin-5-yl} benzamide]
D (D=>20 uM) | CCOC(=O)c1noc(-c2cnc(NC(C)(C)c3ncccc3Cl)nc2)n1 [ethyl 5-(2-{[1-(3-chloro(2-pyridyl))-isopropyl]amino}pyrimidin-5-yl)-1,2,4-oxadiazole-3-carboxylate]
B (B=1-10 uM) | NC(=O)c1ccc(F)cc1-c1cnc(NC[C@]2(c3ncccc3F)C[C@H](F)C2)nc1 [4-fluoro-2-[2-({[3-fluoro-1-(3-fluoro(2-pyridyl))cyclobutyl]methyl}amino)pyrimidin-5-yl]benzamide]
D (D=>20 uM) | COc1ccc(-c2cnc(NC[C@]3(c4ncccc4F)C[C@H](F)C3)nc2)nn1 [{[3-fluoro-1-(3-fluoro(2-pyridyl))cyclobutyl]methyl}[5-(6-methoxypyridazin-3-yl)]pyrimidin-2-yl]amine]

Further lines, the compound ahead of its results:

Compound | Mean AC1.4
CN1CC(NC(=O)c2ccc(F)c(-c3cnc(NC[C@]4(c5ncccc5F)C[C@H](F)C4)nc3)c2)C1 [{4-fluoro-3-[2-({[3-fluoro-1-(3-fluoro(2-pyridyl))cyclobutyl]methyl}amino)pyrimidin-5-yl]phenyl}-N-(1-methylazetidin-3-yl)carboxamide] | B (B=1-10 uM)
N#Cc1cccc(-c2cnc(NCC3(c4ncccc4Cl)CCC3)nc2)c1 [3-[2-({[(3-chloro-2-pyridyl)cyclobutyl]methyl}amino)pyrimidin-5-yl]benzenecarbonitrile] | A (A=<1 uM)
CC(C)(Nc1ncc(-c2ccnc(C(N)=O)c2)cn1)c1ncccc1Cl [4-(2-{[1-(3-chloro(2-pyridyl))-isopropyl]amino}pyrimidin-5-yl)pyridine-2-carboxamide] | B (B=1-10 uM)
COC(=O)c1cc(-c2cnc(NC(C)(C)c3ncccc3Cl)nc2)ncn1 [methyl 6-(2-{[1-(3-chloro(2-pyridyl))-isopropyl]amino}pyrimidin-5-yl)pyrimidine-4-carboxylate] | D (D=>20 uM)
CC(C)(Nc1ncc(-n2cc(C(N)=O)cn2)cn1)c1ncccc1Cl [1-(2-{[1-(3-chloro(2-pyridyl))-isopropyl]amino}pyrimidin-5-yl)pyrazole-4-carboxamide] | B (B=1-10 uM)
Cc1cc(NC(=O)c2cnc(NCC3(c4ncccc4F)CCC3)nc2)[nH]n1 [[2-({[(3-fluoro(2-pyridyl))cyclobutyl]methyl}amino)pyrimidin-5-yl]-N-(3-methylpyrazol-5-yl)carboxamide] | D (D=>20 uM)
NC(=O)c1cccc(-c2cnc(NCC3(c4ncccc4Cl)CCC3)nc2)c1 [3-[2-({[(3-chloro-2-pyridyl)cyclobutyl]methyl}amino)pyrimidin-5-yl]benzamide] | A (A=<1 uM)
C[S+]([O-])c1ccc(C(C)(C)Nc2ncc(-c3cccc(C(N)=O)c3)cn2)cc1 (stereo not shown) [3-(2-(2-(4-(methylsulfinyl)phenyl)propan-2-ylamino)pyrimidin-5-yl)benzamide] | D (D=>20 uM)
O=C(Nc1ccon1)c1cnc(NCC2(c3ncccc3F)CCC2)nc1 [[2-({[(3-fluoro(2-pyridyl))cyclobutyl]methyl}amino)pyrimidin-5-yl]-N-isoxazol-3-ylcarboxamide] | B (B=1-10 uM)
CNc1nc(NC[C@]2(c3ncccc3F)C[C@H](F)C2)ncc1-c1ccccc1 [{[3-fluoro-1-(3-fluoro(2-pyridyl))cyclobutyl]methyl}[4-(methylamino)-5-phenylpyrimidin-2-yl]amine] | D (D=>20 uM)
NC(=O)c1ccc(F)c(-c2cnc(NC[C@]3(c4ncccc4F)C[C@H](F)C3)nc2)c1O [4-fluoro-3-[2-({[3-fluoro)-1-(3-fluoro(2-pyridyl))cyclobutyl]methyl}amino)pyrimidin-5-yl]-2-hydroxybenzamide] | A (A=<1 uM)
CS(=O)(=O)NCc1cnc(-c2cnc(NCC3(c4ncccc4F)CCC3)nc2)s1 [({2-[2-({[(3-fluoro(2-pyridyl))cyclobutyl]methyl}amino)pyrimidin-5-yl](1,3-thiazol-5-yl)}methyl)(methylsulfonyl)amine] | B (B=1-10 uM)
CC(=O)N1CC(NC(=O)c2ccc(F)c(-c3cnc(NC[C@]4(c5ncccc5F)C[C@H](F)C4)nc3)c2)C1 [N-(1-acetylazetidin-3-yl) {4-fluoro-3-[2-({[3-fluoro-1-(3-fluoro(2-pyridyl))cyclobutyl]methyl}aminopyrimidin-5-yl]phenyl}carboxamide] | B (B=1-10 uM)
CC(C)(Nc1ncc(-c2cc(C(N)=O)ncn2)cn1)c1ncccc1Cl [6-(2-{[1-(3-chloro(2-pyridyl))-isopropyl]amino}pyrimidin-5-yl)pyrimidine-4-carboxamide] | B (B=1-10 uM)
CC(C)(Nc1ncc(-c2cnnc(C(N)=O)c2)cn1)c1ncccc1Cl [5-(2-{[1-(3-chloro(2-pyridyl))-isopropyl]amino)pyrimidin-5-yl)pyridazine-3-carboxamide] | B (B=1-10 uM)
CC(C)(Nc1ncc(-c2cccc(C(N)=O)n2)cn1)c1ncccc1Cl [6-(2-{[1-(3-chloro(2-pyridyl))-isopropyl]amino}pyrimidin-5-yl)pyridine-2-carboxamide] | C (C=10-20 uM)
O=C(Nc1ccccc1)c1ccnc(NCC2(c3ncccc3F)CCC2)n1 [[2-({[(3-fluoro(2-pyridyl))cyclobutyl]methyl}amino)pyrimidin-4-yl]-N-benzamide] | D (D=>20 uM)
CC(C)(C)NC(=O)c1cc(-c2cnc(NC(C)(C)c3ncccc3Cl)nc2)cnn1 [N-(tert-butyl)[5-(2-{[1-(3-chloro(2-pyridyl))-isapropyl]amino}pyrimidin-5-yl)pyridazin-3-yl]carboxamide] | D (D=>20 uM)
NCc1cnc(-c2cnc(NCC3(c4ncccc4Cl)CCC3)nc2)s1 [{5-[5-(aminomethyl)(1,3-thiazol-2-yl)]pyrimidin-2-yl}{[3-chloro(2-pyridyl))cyclobutyl]methyl)amine] | B (B=1-10 uM)
COC(=O)CNC(=O)c1cnc(NCC2(c3ncccc3F)CCC2)nc1 [methyl 2-{[2-({[(3-fluoro-2-pyridyl)cyclobutyl]methyl}amino)pyrimidin-5-yl]carbonylamino} acetate] | D (D=>20 uM)
Fc1ccc(C2(Nc3ncc4cn[nH]c4n3)CCC2)cc1 [[(4-fluorophenyl)cyclobutyl]pyrazolo[5,4-d]pyrimidin-6-ylamine] | D (D=>20 uM)
NC(=O)c1csc(-c2cnc(NCC3(c4ncccc4F)CCC3)nc2)n1 [2-[2-({[(3-fluoro-2-pyridyl)cyclobutyl]methyl}amino)pyrimidin-5-yl]-1,3-thiazole-4-carboxamide] | B (B=1-10 uM)
COc1cccnc1C(C)(C)Nc1ncc(-c2cc(C(N)=O)ccc2F)cn1 [4-fluoro-3-(2-{[1-(3-methoxy(2-pyridyl))-isopropyl]amino}pyrimidin-5-yl)benzamide] | C (C=10-20 uM)
CN(C)c1nc(NC[C@]2(c3ncccc3F)C[C@H](F)C2)ncc1-c1ccccc1 [[2-({[3-fluoro-1-(3-fluoro(2-pyridyl))cyclobutyl]methyl}amino-5-phenylpyrimidin-4-yl]dimethylamine] | D (D=>20 uM)
CC(C)(Nc1ncccn1)c1ncccc1Cl [[1-(3-chloro(2-pyridyl))-isopropyl]pyrimidin-2-ylamine] | D (D=>20 uM)
CNC(=O)c1cccc(-c2cnc(NC[C@]3(c4ncccc4F)C[C@H](F)C3)nc2)c1O [{3-[2-({[3-fluoro-1-(3-fluoro(2-pyridyl))cyclobutyl]methyl}amino)pyrimidin-5-yl]-2-hydroxyphenyl}-N-methylcarboxamide] | B (B=1-10 uM)
CC(C)(Nc1ncc(-c2cn3cc(C(=O)O)ccc3n2)cn1)c1ncccc1Cl [2-(2-{[1-(3-chloro(2-pyridyl))-isopropyl]amino}pyrimidin-5-yl)-4-hydroimidazo[1,2-a]pyridine-6-carboxylic acid] | D (D=>20 uM)
N#Cc1cnc(-c2cnc(NCC3(c4ccccn4)CCC3)nc2)s1 [2-(2-{[(2-pyridylcyclobutyl)methyl]amino}pyrimidin-5-yl)-1,3-thiazole-5-carbonitrile] | D (D=>20 uM)
